The record followed here is patent US20110293545A1, “Dolichos Biflorus Extract For Use In Cosmetic Skin Treatment” (Cognis IP Management GmbH, priority 2009, published 2011).

What all share (type): cell-based
Assay [1] relates to collagen I. As to the kind of experiment: Stimulation of collagen I production (ELISA of released collagen peptides, Bradford cell proteins). The conditions noted are these: dose 20 μg/ml; 72 hours; human dermal fibroblasts. As for the experimental part:
The purpose of this assay was the evaluation of the potential of Dolichos biflorus seed extract to increase the level of collagen I. Human dermal fibroblasts (from skin of aesthetic surgery) were cultivated in growth medium (DMEM Invitrogen N° 41965-039 with FCS at 10% (v/v)) for 24 hours at 37° C. […] The amount of cellular proteins was determined on cell homogenate (in a solution of NaOH 0.1 N) by the Bradford's method. The quantity of synthesized type I collagen was determined by measuring the amount of released collagen peptides in cell culture medium by an ELISA method (kit […]° from Osteomedical). They are expressed in % protein referring to the control (=standard medium with cells).

Assay [2] deals with COL5A1. As to the kind of experiment: qRT-PCR of collagen V encoding gene COL5A1 in human dermal fibroblasts. The conditions noted are these: 10 ng/ml, with carrier protein; 24 h incubation; relative to EF1α. The method, then:
(§1) This test was performed to evaluate the stimulation efficacy of a Dolichos biflorus extract according to example 3 on the expression of collagen V encoding genes in human fibroblasts. As 2 genes are responsible of the production of collagen V, namely the genes COL5A1 and COL5A2, both gene expressions were analysed.
(§2) Human dermal fibroblasts (obtained from plastic surgery) were inoculated in standard DMEM medium of cell culture with 10% FCS (Invitrogen). When cell confluence was arisen, the substances to be tested were introduced in new DMEM without FCS. Fibroblasts were incubated during 24 h with the test substances, then total RNA was extracted using a commercial extraction kit (Nucleospin™ RNA II, Macherey-Nagel™, France). Quantification and quality control of total RNA were performed by measuring […] at 260 and 280 nm. […]
(§3) The reverse transcription step was performed with a reverse transcription (RT) kit (ThermoScript™ RT-PCR System, Invitrogen, France) using 0.1 μg of total RNA in a 20 μl final volume. The quantitative PCRs were performed on 2 μl of the RT mix with specific primers in a 20 μl final volume, according to the manufacturer's informations (LightCycler®480 SYBR Green I Master, Roche, France). […] Results, expressed as percentage RNA compared to the control, are the mean of three independent assays (table 3). […]

Assay [3] concerns COL5A2. As to the kind of experiment: qRT-PCR of collagen V encoding gene COL5A2 in human dermal fibroblasts. The note with it: 10 ng/ml, with carrier protein; 24 h incubation; relative to EF1α. As for the experimental part:
as §1, §2, §3

As for `O=C1O[C@H]([C@@H](O)CO)C(O)=C1O` [Vitamin C], in assay [1], the Cell proteins amounted to 77.3 % protein against control and the “Released type I collagen” value was 118.3 % protein against control.

On to “TGF-β1: growth factor, positive reference; strong transcription activator of collagen genes; added with a carrier protein”, for which the “RNA level of COL5A1” value in assay [2] stood at 567 %/control. Further, in assay [3], the “RNA level of COL5A2” value is recorded as 171 %/control.
